From patent US20240156723A1, “DEPOT COMPOSITIONS FOR VESICULAR MONOAMINE TRANSPORTER 2 (VMAT2) INHBITORS” (Foresee Pharmaceuticals Co., Ltd., priority 2022, published 2024)
pKi: −log10 of the molar value. Each block holds one molecule with its values, some of them ahead of it.

How the values were obtained:
[1] = cited from earlier work
[2] = particle size distribution by laser diffraction (Mastersizer 3000); format: physicochemical; settings: re-dispersed in 0.2% Tween 20 deionized water
Protocol: (§1) Briefly, 10 mg/mL (+)-TBZ or (±)-d6-TBZ recrystallized crystal was re-dispersed in 0.2% Tween 20 deionized water with a rigorous vortex. The microscopy was conducted using the optical microscope Leica DMi8, with 100-fold magnification. The PSD was measured using laser diffraction method, with Mastersizer 3000 (Malvern, UK). Before particle sizing, the 10 mg/mL (+)-TBZ crystal was re-dispersed in 0.2% Tween 20 deionized water and sonicated for ˜10 sec.
as §1, with “(+)-TBZ” for “(+)-TBZ or (±)-d6-TBZ”
Four grams of raw (+)-TBZ crystals were jet milled in a 20 mm milling chamber at room temperature (Micromacinazione, Switzerland). Briefly, the jet mill was connected to high pressure nitrogen for providing the pneumatic forces. The grinding pressure and feeding pressure are set on 2.5 bar and 5 bar, respectively. The feeding rate of raw (+)-TBZ crystal was 1.6 g/m in. The fine (+)-TBZ powder was collected by the cyclone and recovered in a vial. The yield was ˜80%. The PSD was characterized using laser diffraction method, with Mastersizer 3000 (Malvern, UK). Before particle sizing, the 10 mg/mL (+)-TBZ crystal was re-dispersed in 0.2% Tween 20 deionized water and sonicated for ˜10 sec. […]
Four grams of raw cholesterol crystals (Nippon fine chemical, Japan) was jet milled in a 20 mm milling chamber at room temperature (Micromacinazione, Switzerland). The jet mill was connected to high pressure nitrogen for providing the pneumatic forces. The grinding pressure and feeding pressure are set on 2.5 bar and 5 bar, respectively. The feeding rate of raw cholesterol crystal was 1.6 g/m in. The fine CSTR powder was collected by the cyclone and recovered in a vial. The yield was ˜80%. The PSD was characterized using laser diffraction method, with Mastersizer 3000 (Malvern, UK). Before particle sizing, the 10 mg/mL CSTR crystal was re-dispersed in 0.2% Tween 20 deionized water and sonicated for ˜10 sec.
The spray drying was conducted with Mini Spray Dryer B-290, (Buchi, Switzerland). First, 10 grams of raw cholesterol crystal was dissolved in 300 mL isopropanol (IPA) with 35-40° C. heating to obtain a clear solution. The spray drying was conducted at a flow rate of 12.5 ml/min and completed in 2 hours. The fine CSTR particles were collected by the cyclone and recovered in a vial. The yield was about 80%. […] Briefly, 10 mg/mL SPD CSTR was re-dispersed in 0.2% Tween 20 deionized water with a rigorous vortex. The microscopy was conducted using the optical microscope Leica DMi8, with 100-fold magnification. The PSD was characterized using laser diffraction method, with Mastersizer 3000 (Malvern, UK) and the results are shown in Table 12. Before particle sizing, the 10 mg/mL SPD CSTR was re-dispersed in 0.2% Tween 20 deionized water and sonicated for ˜10 sec. […]
4 grams of raw (+)-α-DHTBZ crystals (Wuxi Pharma, China) were jet milled in a 20 mm milling chamber at room temperature (Micromacinazione, Switzerland). Briefly, the jet mill was connected to high pressure nitrogen for providing pneumatic forces, with grinding pressure and feeding pressure set at 4 and 5 bars, respectively. The feeding rate of raw (+)-α-DHTBZ crystals was 1.6 g/m in. Fine milled (+)-α-DHTBZ crystals were collected by the cyclone and recovered in a vial. The yield was ˜80%. The PSD of jet-milled (+)-α-DHTBZ was characterized using laser diffraction method, with Mastersizer 3000 (Malvern, UK). Before particle sizing, the 10 mg jet milled (+)-α-DHTBZ was re-dispersed in 1 mL of 0.2% Tween-20 deionized water and sonicated for ˜10 sec.

[3] = solubility in heptane; format: physicochemical; settings: room temperature
[4] = target: dopamine D2 (Homo sapiens, UniProt P14416); settings: dopamine D2 receptor; read-out: off-target binding affinity to dopamine D2; cited from earlier work
[5] = target: serotonin 5-HT7 receptors (Homo sapiens, UniProt P34969); settings: serotonin 5-HT7 receptor; read-out: off-target binding affinity to serotonin 5-HT7; cited from earlier work
[6] = listed as 3 g rex (+)-TBZ-1 iii

serotonin 5-HT7 receptors, sequence (P34969 whole entry): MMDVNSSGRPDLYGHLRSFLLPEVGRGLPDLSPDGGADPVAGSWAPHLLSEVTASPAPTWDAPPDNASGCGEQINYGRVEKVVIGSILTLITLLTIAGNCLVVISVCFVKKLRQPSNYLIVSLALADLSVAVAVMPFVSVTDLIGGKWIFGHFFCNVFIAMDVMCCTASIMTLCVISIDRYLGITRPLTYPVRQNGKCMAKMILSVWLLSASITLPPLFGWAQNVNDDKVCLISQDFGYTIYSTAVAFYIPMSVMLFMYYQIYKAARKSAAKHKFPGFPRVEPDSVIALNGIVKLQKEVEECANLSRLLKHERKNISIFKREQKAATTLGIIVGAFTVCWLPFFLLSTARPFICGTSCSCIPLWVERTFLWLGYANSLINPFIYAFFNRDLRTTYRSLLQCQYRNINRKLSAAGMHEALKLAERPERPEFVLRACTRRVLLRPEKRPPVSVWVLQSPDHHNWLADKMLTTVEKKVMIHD
dopamine D2, sequence (P14416 whole entry): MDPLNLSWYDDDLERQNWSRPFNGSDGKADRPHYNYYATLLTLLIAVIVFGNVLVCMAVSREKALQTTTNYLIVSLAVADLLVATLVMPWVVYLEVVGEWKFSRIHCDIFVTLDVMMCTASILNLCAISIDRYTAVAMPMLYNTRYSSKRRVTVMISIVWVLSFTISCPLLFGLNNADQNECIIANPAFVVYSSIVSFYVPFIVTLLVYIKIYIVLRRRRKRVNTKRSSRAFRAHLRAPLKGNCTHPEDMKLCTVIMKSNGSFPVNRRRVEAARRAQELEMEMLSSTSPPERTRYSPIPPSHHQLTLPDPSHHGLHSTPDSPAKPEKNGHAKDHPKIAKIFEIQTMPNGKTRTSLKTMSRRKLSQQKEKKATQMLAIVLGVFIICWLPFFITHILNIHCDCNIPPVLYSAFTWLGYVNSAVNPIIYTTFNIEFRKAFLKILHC

Molecule: COc1cc2c(cc1OC)C1CC(O)C(CC(C)C)CN1CC2 (single isomer, unassigned; (+)) [(+)-(α)-DHTBZ, [+]-α-dihydrotetrabenazine]
- D10 (μm) [2]: 5 μm
- D50 (μm) [2]: 13 μm
- D90 (μm) [2]: 40 μm

Molecule: COc1cc2c(cc1OC)[C@H]1C[C@@H](O)[C@H](CC(C)C)CN1CC2 [(−)-(α)-DHTBZ, [−]-α-dihydrotetrabenazine]
- pKi [4]: 6.74
- pKi [5]: 7.15

Molecule: COc1cc2c(cc1OC)[C@H]1C[C@@H](OC(=O)[C@@H](N)C(C)C)[C@H](CC(C)C)CN1CC2 [VBZ, L-Valine, (2R,3R,11bR)-1,3,4,6,7,11b-hexahydro-9,10-dimethoxy-3-(2-methylpropyI)-2H-benzo[a]quinolizin-2-yl ester]
- oral bioavailability [1]: ~50%

Molecule: [−]-β-dihydrotetrabenazine [(−)-(β)-DHTBZ]
- pKi [4]: 7.28
- pKi [5]: 8.23

Further lines, with some results ahead:

- D10 (μm) [2]: 4.2 μm
- D50 (μm) [2]: 9.2 μm
- D90 (μm) [2]: 20.1 μm
Molecule: COc1cc2c(cc1OC)C1CC(=O)C(CC(C)C)CN1CC2 (racemic) [TBZ, 1,3,4,6,7,11b-hexahydro-9,10-dimethoxy-3-(2-methoxylrpopryl)-2H-benzo(a)quinoline-2-one, reference compound]
- oral bioavailability [1]: 17%

- solubility in heptane [3]: < 0.4 % by weight
- D10 (μm) ([2]; listed as 3 g rex (+)-TBZ-1 i): 17.3 μm
- D50 (μm) ([2]; listed as 3 g rex (+)-TBZ-1 i): 38.5 μm
- D90 (μm) ([2]; listed as 3 g rex (+)-TBZ-1 i): 75.0 μm
- D10 (μm) ([2]; listed as 3 g rex (+)-TBZ-1 ii): 22.0 μm
- D50 (μm) ([2]; listed as 3 g rex (+)-TBZ-1 ii): 45.9 μm
- D90 (μm) ([2]; listed as 3 g rex (+)-TBZ-1 ii): 85.7 μm
- D10 (μm) [2, 6]: 16.6 μm
- D50 (μm) [2, 6]: 33.7 μm
- D90 (μm) [2, 6]: 60.7 μm
- D10 (μm) ([2]; listed as 12 g rex (+)-TBZ i): 15.9 μm
- D50 (μm) ([2]; listed as 12 g rex (+)-TBZ i): 34.9 μm
- D90 (μm) ([2]; listed as 12 g rex (+)-TBZ i): 65.8 μm
- D10 (μm) ([2]; listed as 12 g rex (+)-TBZ ii): 17.7 μm
- D50 (μm) ([2]; listed as 12 g rex (+)-TBZ ii): 40.8 μm
- D90 (μm) ([2]; listed as 12 g rex (+)-TBZ ii): 80.4 μm
- D10 (μm) ([2]; listed as 12 g rex (+)-TBZ iii): 16.7 μm
- D50 (μm) ([2]; listed as 12 g rex (+)-TBZ iii): 38 μm
- D90 (μm) ([2]; listed as 12 g rex (+)-TBZ iii): 76 μm
- D10 (μm) ([2]; listed as Jet milled (+)-TBZ): 2.5 μm
- D50 (μm) ([2]; listed as Jet milled (+)-TBZ): 5.2 μm
- D90 (μm) ([2]; listed as Jet milled (+)-TBZ): 11.8 μm
- D10 (μm) ([2]; listed as Raw (+)-TBZ): 14.3 μm
- D50 (μm) ([2]; listed as Raw (+)-TBZ): 66.5 μm
- D90 (μm) ([2]; listed as Raw (+)-TBZ): 184 μm
Molecule: COc1cc2c(cc1OC)[C@H]1CC(=O)[C@H](CC(C)C)CN1CC2 [(+)-TBZ, (3R,11bR)-tetrabenazine]

- solubility in heptane [3]: > 10 % by weight
- D50 (μm) [2]: 27.3 μm
- D10 (μm) ([2]; listed as Jet milled CSTR): 0.3 μm
- D50 (μm) ([2]; listed as Jet milled CSTR): 4.6 μm
- D90 (μm) ([2]; listed as Jet milled CSTR): 12 μm
- D10 (μm) ([2]; listed as Raw CSTR): 14.1 μm
- D50 (μm) ([2]; listed as Raw CSTR): 27.3 μm
- D90 (μm) ([2]; listed as Raw CSTR): 48 μm
- D10 (μm) ([2]; listed as Spray dried CSTR): 0.2 μm
- D50 (μm) ([2]; listed as Spray dried CSTR): 2.0 μm
- D90 (μm) ([2]; listed as Spray dried CSTR): 5.0 μm
Molecule: CC(C)CCC[C@@H](C)[C@H]1CC[C@H]2[C@@H]3CC=C4C[C@@H](O)CC[C@]4(C)[C@H]3CC[C@]12C [cholesterol]

- D10 (μm) [2]: 12.3 μm
- D50 (μm) [2]: 25.6 μm
- D90 (μm) [2]: 45.4 μm
Molecule: (RR, SS)-1,3,4,6,7,11b-hexahydro-9, 10-di(methoxy-d3)-3-(2-methylpropyl) 2H-benzo[a]quinolizin-2-one [(±)-d6-TBZ, reference compound]
